Experimental data reported in PubChem BioAssay AID1963838 (Molecular Pharmacology Branch, DTP, NCI, 2024).
Where “and” joins values, the source holds several entries; their conditions need not be identical. Identical values can stand only once.

Test system: 855422-203-R-J1-PDC complex spheroid viability
Assay: Anticancer human tumor 855422-203-R-J1-PDC patient-derived bladder carcinoma cell line growth inhibition [POLQ]
Conditions: for viability, T/C: stronger effect = lower value; for IC50: curve of compound
Experimental: Multicellular complex tumor spheroid response to Polymerase (POL) inhibitors (novobiocin, ART-558, RP6685) in combination with a variety of drugs and investigational agents in selected tumor cell lines
The POL inhibitors (novobiocin, ART-558, and RP6685) were evaluated both individually and in combination with standard of care and investigational anticancer small molecules within a complex spheroid model of solid tumors. . Complex spheroids include a stromal component modeled by human endothelial cells (HUVEC) and fibroblasts modeled by human mesenchymal stem cells (MSCs). The concentration ranges selected for each drug and investigational agent were based upon clinically achievable concentrations if the clinical Cmax of the agent was known.
Compounds. The drugs and investigational agents: novobiocin (NSC847541), ART-558 (NSC835418), RP-6685 (NSC848927), peposertib (NSC802822), ceralasertib (NSC780249), elimusertib (NSC800525), camonsertib (NSC841442), AZD-1390 (NSC803789), olaparib (NSC753686), talazoparib (NSC767125), rucaparib (NSC756644), sotorasib (NSC818433), MRTX-1133 (NSC836407), SN-38 (NSC673596), topotecan (NSC609699), epotoside (NSC141540), doxorubicin (NSC123127), gemcitabine (NSC613327), 5-fluorouracil (NSC19893), paclitaxel (NSC125973), vemurafenib (NSC761431), MSA-2 (NSC828583), SN-011 (NSC837082), adavosertib (NSC754352), prexasertib (NSC758257), carboplatin (NSC241240) and oxaliplatin (NSC266046), were obtained from the National Cancer Institute (NCI) Developmental Therapeutics Program Chemical Repository (21). The FDA-approved anticancer drug set is available from the Developmental Therapeutics Program at https://dtp.cancer.gov/organization/dscb/obtaining/. […] The stock solutions were prepared in dimethyl sulfoxide (DMSO, Sigma-Aldrich, St. Louis, MO, cat. D2650), except for the platinum compounds which were prepared in saline (Quality Biological, Gaithersburg, MD, cat. 114-055-101), at 800-fold the tested concentration and stored at -70 degrees C prior to their use. All drugs and investigational agents were tested over a range starting from a high concentration at or near the clinical Cmax and decreasing in half-log increments. If the clinical Cmax for an agent had not been determined, the highest concentration tested was 10 microM, except for SN-38, which was tested at a high concentration of 1 microM.
Cell Culture. All cells were maintained in an incubator at 37 degrees C and 5% CO2 with 95% humidity. The PDC lines were cultured according to standard operating procedures established by the NCI PDMR (https://pdmr.cancer.gov). Table 3 of the manuscript, lists the cell lines along with the number of the three cell types plated to form the mct-spheroids and media for tumor cell growth. After thawing, all PDC lines, except 997537-175-T-J1-PDC and 415267-285-R-J2-PDC, were cultured in Matrigel-coated flasks prepared with a working solution of 1X Ham's F-12 nutrient mix, without supplementation (Thermo Fisher Scientific, cat. 11765054), 100 U/mL penicillin-streptomycin (Thermo Fisher Scientific, cat. 15140122), and 2.5% Matrigel (Corning Inc., Corning, NY, cat. 354248) for the first three passages. The two PDC lines 997537-175-T-J1-PDC and 415267-285-R-J2-PDC were cultured on uncoated flasks. The 857933-349-R-J2-PDC line was cultured in 6C/Colon 1B media containing advanced DMEM/F-12 (Thermo Fisher Scientific, cat. 12634028), 10 mM HEPES (Thermo Fisher Scientific, cat. 15630080), 1X GlutaMAX supplement (Thermo Fisher Scientific, cat. 35050061), 0.1 mg/mL primocin (InvivoGen, San Diego, CA, cat. ant-pm-2), 10% defined fetal bovine serum, heat inactivated (HyClone Laboratories Inc., Logan, UT, cat. SH30070.03HI), 50% L-WRN conditioned media (ATCC, cat. CRL-3276), 1.25 mM N-Acetyl-L-cysteine (Sigma-Aldrich, cat. A9165), 10 mM nicotinamide (Sigma-Aldrich, cat. N0636), 1X B-27 supplement (Thermo Fisher Scientific, cat. 17504044), 1X N-2 supplement (Thermo Fisher Scientific, cat. […]
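Further: spheroids exposed to compounds for seven days before readout.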

Row | SMILES | viability, T/C (compound 0.0316 µM) | viability, T/C (compound 0.1 µM) | viability, T/C (compound 0.316 µM) | viability, T/C (compound 1 µM) | viability, T/C (compound 3.16 µM) | viability, T/C (compound 10 µM) | IC50 | viability, T/C (compound 0.00316 µM) | viability, T/C (compound 0.01 µM) | viability, T/C (compound 0.00949 µM) | viability, T/C (compound 0.03 µM) | viability, T/C (compound 0.0949 µM) | viability, T/C (compound 0.3 µM) | viability, T/C (compound 0.949 µM) | viability, T/C (compound 3 µM) | viability, T/C (compound 0.000316 µM) | viability, T/C (compound 0.001 µM)
1 | C#Cc1c(F)ccc2cc(O)cc(-c3ncc4c(N5CC6CCC(C5)N6)nc(OCC56CCCN5CC(F)C6)nc4c3F)c12 (stereo unspecified) | 120% and 105% and 97.1% | 106% and 100% and 107% | 87.3% and 94.5% and 105% | 98.4% (2×) and 94.2% | 97.4% and 109% and 119% | 104% and 98% and 121% | > 10 µM | – | – | – | – | – | – | – | – | – | –
2 | C=CC(=O)N1CCN(c2nc(=O)n(-c3c(C)ccnc3C(C)C)c3nc(-c4c(O)cccc4F)c(F)cc23)C(C)C1 (stereo unspecified) | 106% and 101% and 103% | 89% and 126% and 115% | 117% and 111% and 114% | 101% and 130% and 102% | 129% and 144% and 132% | 127% and 135% and 113% | > 10 µM | – | – | – | – | – | – | – | – | – | –
3 | C=CCn1c(=O)c2cnc(Nc3ccc(N4CCN(C)CC4)cc3)nc2n1-c1cccc(C(C)(C)O)n1 | 106% and 108% and 122% | 90.9% and 98.5% and 98% | 118% and 116% and 99.9% | 94.8% and 187% and 136% | – | – | > 1 µM | 100% and 104% and 107% | 100% and 120% and 111% | – | – | – | – | – | – | – | –
4 | CC(=O)O[C@H]1C(=O)[C@@]2(C)[C@H]([C@H](OC(=O)c3ccccc3)[C@]3(O)C[C@H](OC(=O)[C@H](O)[C@@H](NC(=O)c4ccccc4)c4ccccc4)C(C)=C1C3(C)C)[C@]1(OC(C)=O)CO[C@@H]1C[C@@H]2O | – | – | – | – | – | – | < 0.00949 µM | – | – | 13.3% and 11.4% and 6.22% | 9.21% and 8.32% and 5.81% | 10.3% and 7.91% and 5.5% | 7.66% and 7.33% and 5.13% | 6.14% and 7.78% and 6.34% | 7.69% and 7.6% and 7.01% | – | –
5 | CC(C)n1c(=O)n(C)c2cnc3cc(F)c(-c4ccc(OCCCN5CCCCC5)nc4)cc3c21 | 100% and 106% and 98.1% | 96.9% and 119% and 91.5% | 103% and 111% and 98.1% | 97.5% and 101% and 93% | 83.8% and 95.1% and 86.4% | 56.6% and 97.9% and 74.8% | > 10 µM | – | – | – | – | – | – | – | – | – | –
6 | CC1COCCN1c1cc(-c2ccnn2C)c2ccnc(-c3ccn[nH]3)c2n1 (stereo unspecified) | 99.3% and 108% and 116% | 70.3% and 81.8% and 110% | 23.4% and 22.9% and 30.8% | 11.2% and 11% and 16.2% | 8.42% and 8.52% and 10.7% | 6.55% and 7.74% and 10.3% | 0.165 µM and 0.186 µM and 0.239 µM | – | – | – | – | – | – | – | – | – | –
7 | CC1COCCN1c1cc(C2(O)CC3CCC(C2)O3)c2cnn(-c3ccn[nH]3)c2n1 (stereo unspecified) | 98.5% and 101% and 111% | 49.5% and 43.5% and 74.9% | 15.2% and 14.2% and 20.3% | 10.6% and 9.31% and 13.1% | 6.4% and 7.44% and 9.6% | 3.63% and 5.73% and 6.18% | 0.0982 µM and 0.0876 µM and 0.17 µM | – | – | – | – | – | – | – | – | – | –
8 | CC1COCCN1c1cc(C2(S(C)(=N)=O)CC2)nc(-c2ccnc3[nH]ccc23)n1 (stereo unspecified) | 97.2% and 103% and 97.7% | 101% (2×) and 94.1% | 109% and 115% and 116% | 97.7% and 154% and 117% | 37.8% and 46% and 35.8% | 9.87% and 13% and 14.6% | 2.5 µM and 2.96 µM and 2.52 µM | – | – | – | – | – | – | – | – | – | –
9 | CCCS(=O)(=O)Nc1ccc(F)c(C(=O)c2c[nH]c3ncc(-c4ccc(Cl)cc4)cc23)c1F | 106% and 96.3% and 94.9% | 97.9% and 102% and 107% | 117% and 97.8% and 105% | 96.7% and 100% and 109% | 113% (2×) and 108% | 7.16% and 6.83% and 1.07% | 6.08 µM and 5.93 µM and 5.81 µM | – | – | – | – | – | – | – | – | – | –
10 | CC[C@@]1(O)C(=O)OCc2c1cc1n(c2=O)Cc2cc3c(CN(C)C)c(O)ccc3nc2-1 | 54.6% and 99.2% and 57.2% | 10.1% and 17.6% and 11.1% | – | – | – | – | 0.0359 µM and 0.0631 µM and 0.0371 µM | 105% and 98.4% and 122% | 90.4% and 90% and 93.3% | – | – | – | – | – | – | 113% and 104% and 102% | 102% (2×) and 109%
11 | CCc1c2c(nc3ccc(O)cc13)-c1cc3c(c(=O)n1C2)COC(=O)[C@]3(O)CC | 6.94% and 13.9% and 6.52% | 5.24% and 8.86% and 5.52% | 3.34% and 4.22% (2×) | 1.24% and 3.11% and 2.06% | – | – | 0.00329 µM and 0.0077 µM and < 0.00316 µM | 51.3% and 111% and 38.4% | 12.8% and 30.6% and 13.8% | – | – | – | – | – | – | – | –
12 | CCc1cc2c(N3CCc4c(cc(Cn5ccnc5)cc4-c4cn(C)nc4C(F)(F)F)C3=O)cc(C)nc2c(OC)n1 | 89.8% and 99.4% and 115% | 81.6% and 103% and 101% | 74.5% and 132% and 120% | 62.8% and 85.8% and 94.5% | 49.1% and 62% and 75.6% | 26.1% and 50.8% and 38.6% | 2.62 µM and > 10 µM and 6.96 µM | – | – | – | – | – | – | – | – | – | –
13 | CCc1cc2c(N3CCc4c(cc(Cn5ccnc5)cc4-c4cn(C)nc4C(F)(F)F)C3=O)ccnc2c(OC)n1 | 83.3% and 126% and 119% | 84.9% and 133% and 116% | 73.8% and 136% and 139% | 74.3% and 100% and 104% | 47.2% and 73.1% and 78.9% | 32.6% and 47.8% and 46.6% | 2.87 µM and 9.66 µM and 8.96 µM | – | – | – | – | – | – | – | – | – | –
